Assay results reported in patent publication US9623017B2 (priority 2014, dated 2017).

Tests used:
[1] = Dynamic vapor sorption (DVS) analysis, Hiden IGAsorp; assay type: physicochemical
Experimental: Approximately 10 mg of sample was placed into a mesh vapor sorption balance pan and loaded into a Hiden IGAsorp by Hiden. The sample was subjected to a ramping profile from 40-90% relative humidity (RH) at 10% increments, maintaining the sample at each step until a stable weight had been achieved (99.5% step completion). After completion of the sorption cycle, the sample was dried using the same procedure to 0% RH the sample was then subsequently taken back to 40% RH using the same procedure.
A DVS analysis of the 4:3 naltrexone: 5-methyl-2-furaldehyde cocrystal was performed using Hiden IGAsorp method.

[2] = Solubility of the cocrystal in heptane; assay type: physicochemical
Text: A drug-in-adhesive transdermal patch of the invention may be manufactured using methods known in the art. The 4:3 naltrexone: 5-methyl-2-furaldehyde cocrystal particles may be incorporated into the drug-in-adhesive layer also using known methods such as melt blending. The 4:3 naltrexone: 5-methyl-2-furaldehyde cocrystal particles may be dispersed in a liquid in which the cocrystal is not soluble or only sparingly soluble (a “non-solvent”) and then added to a solution of the other drug-in-adhesive layer components in that same liquid. Alternatively, the 4:3 naltrexone: 5-methyl-2-furaldehyde cocrystal particles may be dispersed into the solution of the drug-in-adhesive components itself. Use of a non-solvent ensures that the cocrystal retains its crystalline form while forming the drug-in-adhesive layer. For the 4:3 naltrexone: 5-methyl-2-furaldehyde cocrystal, such a liquid will generally be a non-polar organic solvent. An example of such a solvent is heptane in which the 4:3 naltrexone: 5-methyl-2-furaldehyde cocrystal has a solubility of only 0.1 mg/mL at 5° C. and of 0.2 mg/mL at 50° C. Alternatively, the 4:3 naltrexone: 5-methyl-2-furaldehyde cocrystal particles may be incorporated into the drug-in-adhesive layer also using known methods such as melt blending.

[3] = Skin flux evaluation, Franz Cell Diffusion method; assay type: in vitro ADME, human; conditions: film without lidocaine (n=7) vs patch with lidocaine, 32° C., 72-hour period
Experimental: The diffusion of lidocaine API and naltrexone from the 4:3 naltrexone: 5-methyl-2-furaldehyde cocrystal in the transdermal patch to the skin was studied using a Franz Cell Diffusion (FCD) method. In the method, transdermal patches were placed on top of heat-separated human cadaver skin. The receptor solution (0.01M phosphate buffer, pH 5.76) was analyzed for lidocaine and naltrexone content over time by HPLC using the methods discussed above. In one set of experiments the method used four transdermal patches (n=4) and was carried out at 32° C. […] In another set of experiments a similar film was prepared as above without lidocaine (Dow Medical Fluid 100-5%/Dow 7-4201-88%/NTX-Co-7%). NTX-Co transdermal flux (n=7) was measured through heat-separated human cadaver skin using Franz Cell Diffusion cells at 32° C.

With “4:3 naltrexone: 5-methyl-2-furaldehyde cocrystal” the “hygroscopicity (DVS)” value ([1]; DVS kinetic analysis) was “not hygroscopic”, the “XRPD pattern of material reclaimed after DVS experiment” value ([1]; after DVS cycle, compared with FIG. 1) was “same XRPD pattern as in FIG. 1” and the “mass change (DVS)” value ([1]; ramping 40-90% RH, drying to 0% RH, back to 40% RH) was less than 3%. The solubility in heptane ([2]; 5° C.) was 100 µg/mL, the solubility in heptane ([2]; 50° C.) was 200 µg/mL and the transdermal flux [3] was “lower in the absence of lidocaine”.
